Values quoted from earlier work as cited in patent US6638541B1, “Sexual desire and performance enhancement with protein-bound tryptophan” (priority 2002, dated 2003).

Key:
plasma albumin = target: T1, plasma albumin (Homo sapiens, UniProt P02768); details: after absorption, circulating in the blood
T1 construct: host or cells: blood plasma in vivo (endogenous circulating albumin)

[1] = higher dosages (greater than 12 gm per day); Hartmann, 1977

T1 sequence (P02768 25-609): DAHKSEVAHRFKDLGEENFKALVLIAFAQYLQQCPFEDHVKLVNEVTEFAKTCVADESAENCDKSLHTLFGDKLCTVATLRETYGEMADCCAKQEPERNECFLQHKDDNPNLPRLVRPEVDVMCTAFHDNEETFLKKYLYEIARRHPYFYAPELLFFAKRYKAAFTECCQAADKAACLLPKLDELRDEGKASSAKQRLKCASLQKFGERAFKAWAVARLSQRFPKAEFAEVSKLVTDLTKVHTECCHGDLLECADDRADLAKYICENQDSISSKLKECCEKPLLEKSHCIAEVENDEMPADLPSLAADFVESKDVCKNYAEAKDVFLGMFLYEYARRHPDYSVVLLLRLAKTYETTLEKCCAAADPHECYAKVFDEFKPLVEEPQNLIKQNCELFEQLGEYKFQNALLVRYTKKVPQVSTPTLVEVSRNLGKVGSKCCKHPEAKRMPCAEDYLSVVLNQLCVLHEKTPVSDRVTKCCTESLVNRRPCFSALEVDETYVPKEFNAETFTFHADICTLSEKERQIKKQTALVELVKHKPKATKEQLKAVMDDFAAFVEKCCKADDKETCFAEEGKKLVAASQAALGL

Question: Which “fraction circulating as free tryptophan” value (plasma albumin) does the source give for `N[C@@H](Cc1c[nH]c2ccccc12)C(=O)O` [tryptophan] here?
Answer: The value was 20%.

Question: What about the “fraction of tryptophan in blood bound to plasma albumin” value (plasma albumin) of the same compound?
Answer: Its value is “approximately 80%”.

Question: And the most frequent complaints [1]?
Answer: Its most frequent complaints is “daytime sedation and nausea”.

Question: And the “dose at which the hypnotic dose-response curve plateaus” value (sleep / sleep latency; fairly flat dose-response curve, Schneider-Helmut and Spinweber, 1986)?
Answer: The value was “approximately 1000 mg”.

Question: What about the “dose sufficient to produce improved sleep” value (sleep / sleep latency; given alone, people with mild insomnia or longer-than-average sleep latency) of the same compound?
Answer: Its value is 250 mg.
